Entries after “also recorded” stand apart in the source; their conditions may differ. Where no end group is shown, it is not given here.
Key:
DCAF12-DDB1 = biological target: T1, DCAF12-DDB1 (Homo sapiens, UniProt Q16531+Q5T6F0); assay: FP direct peptide binding, DDB1–DCAF12 complex; settings: for Kd range, FP direct binding: DDB1–DCAF12, FITC-labeled peptide
T1 construct: Despite our attempts to express and purify the full-length (FL) DCAF12 in isolation; made in house; host or cells: Spodoptera frugiperda Sf9 (baculovirus co-expression)
Description: (§1) To further characterize DCAF12 binding to MAGEA3 and CCT5 degrons, we developed a fluorescence polarization (FP)-based peptide binding and displacement assay in vitro. We designed small N-terminal fluorescein isothiocyanate (FITC)-labeled peptides harboring 11 C-terminal residues of MAGEA3 ([…]) and nine from CCT5 ([…]), both carrying the known -EE degron.
(§2) DCAF12 constructs were subcloned from Mammalian Gene Collection (MGC) stock BC063823 into baculovirus expression vector pFBOH-MHL. For co-expression with DCAF12, DDB1 (MGC stock […]) and DDA1 (MGC stock BC000615) were subcloned into pFBOH-LIC vector lacking any protein tags. For testing DDB1-FL direct binding to peptides on FP assay, the protein was expressed using pFBOH-MHL vector with His-tag. All protein constructs were expressed in Spodoptera frugiperda (Sf9), as previously described ([37]).
(§3) FP-binding assays were performed using 20 mM Tris pH 7.5, 150 mM NaCl, 5% glycerol, 0.5 mM TCEP, and 0.01% Triton buffer. All tested proteins were titrated from an initial 4 µM highest concentration, followed by a factor two serial dilution. N-terminally labeled FITC peptides ([…] for MAGEA3, […] for CCT5, and […] for H3K9A) binding to proteins was tested at 20 nM final concentration. The assay was incubated for 45 min at room temperature, and plates were read using BioTek Synergy 4 (BioTek) plate reader. Prior to displacement assay, proteins at binding Kd concentration were mixed with FITC peptides at 20 nM final concentration. Displacement was evaluated by using a titration curve of unlabeled peptide, with 40 µM as the highest concentration. Buffer, incubation time, and reading conditions followed FP-binding protocol. All FP analyses were performed in triplicates and, at least, two independent experiments. All Kd and KDISP values were calculated using GraphPad Prism version 9.0.

[1] = test system: DCAF12 mutants K91A, K108A, R203A, R256A, R344A; assay: NanoBRET with full-length proteins, DCAF12 mutants; format: cell-based, human; settings: HEK293T cells; FL protein or degron as stated; DCAF12 mutations vs WT
Description: Fig. 2. Conserved arginine and lysine residues near DCAF12 central channel participate in MAGEA3 binding in cells. A) DCAF12 electrostatic surface potential analysis showing negatively and positively charged residues colored in red and blue, respectively. On the left, DDB1 contacting surface of DCAF12. On the right, substrate contacting surface with positively charged residues—Arg203, Arg256, and Arg344—highlighted as sticks. Electrostatic potential is shown on a scale of −10 (red) kT/e to 10 (blue). B) Conservation analysis of DCAF12 showing high conservation of the same positively charged residues (represented as sticks) among homologous sequences. Residues were colored on a scale from variable/low conservation (dark teal) to high conservation (magenta). […]
(§4) HEK293T cells were plated in 96-well plates (2 × 10^4/well) and 4 h later transfected with 0.03 µg/well N-terminally HT-tagged DCAF12 (WT or mutants) or HT alone and 0.001 µg/well N-terminally NL-tagged CCT5 and MAGEA3 (FL or -EE degrons) using X-tremeGene HP transfection reagent (Roche), following the manufacturer's instructions. […] Four hours later, 10 µL of NanoBRET Nano-Glo Substrate solution (8 µL/mL Nano-Glo substrate (Promega) diluted in DMEM/F12 no phenol red, supplemented with 4% FBS, penicillin 100 U/mL, and streptomycin 100 µg/mL) was added, and the signal was read. […]

DCAF12 = assay: NanoBRET with full-length proteins, DCAF12; format: cell-based, human; settings: HEK293T cells; FL protein
Description: (§5) To further investigate the DCAF12 interaction with MAGEA3 and CCT5 in cells, we developed a NanoBRET assay, which measures the interaction of […] FL MEAGEA3/CCT5 or C-terminal peptide containing degron sequences ([…]/[…], respectively). When donor and acceptor proteins are in close proximity, the donor excites the acceptor, which then emits fluorescence, allowing for direct measurement of protein–protein interaction in cells.
as §4, with “read. Donor emission at 450 nm (filter: 450 nm/BP 80 nm) and acceptor emission at 618 nm (filter: 610 nm/LP) were measured within 10 min of substrate addition using CLARIOstar microplate reader (Mandel).” for “read.”

DCAF12 R203A/R256A = assay: NanoBRET with -EE degrons, DCAF12 R203A/R256A mutant; format: cell-based, human; settings: HEK293T cells; HT-tagged DCAF12 R203A/R256A, NL-tagged degron; vs WT
Description: as §5
(§6) Therefore, we used site-directed mutagenesis to generate two DCAF12 mutants in the central pocket of the WDR domain: R203A/R256A and R203A/R244A. DCAF12 wild-type (WT) and mutant interactions with MAGEA3 and CCT5 degron peptides were tested in a NanoBRET proximity-based assay (Fig. 2C).
as §4

DCAF12 R203A/R244A = assay: NanoBRET with -EE degrons, second DCAF12 double arginine mutant; format: cell-based, human; settings: HEK293T cells; HT-tagged DCAF12 mutant, NL-tagged degron; vs WT
Description: as §5, §6, §4

DCAF12 (Δ1–78) = biological target: T2, DCAF12 (Δ1–78) (Homo sapiens, UniProt Q5T6F0); assay: FP direct peptide binding, DCAF12 (Δ1–78); settings: FITC-labeled peptide
T2 construct: DCAF12:79-453aa; His6-TEV site ([…]) (N); made in house; host or cells: Spodoptera frugiperda Sf9 (baculovirus)
Description: as §1, §2
FP-binding assays were performed using 20 mM Tris pH 7.5, 150 mM NaCl, 5% glycerol, 0.5 mM TCEP, and 0.01% Triton buffer. […] The assay was incubated for 45 min at room temperature, and plates were read using BioTek Synergy 4 (BioTek) plate reader. […] Displacement was evaluated by using a titration curve of unlabeled peptide, with 40 µM as the highest concentration. Buffer, incubation time, and reading conditions followed FP-binding protocol. […] All Kd and KDISP values were calculated using GraphPad Prism version 9.0.

DCAF12-DDB1-DDA1 = biological target: T3, DCAF12-DDB1-DDA1 (Homo sapiens, UniProt Q16531+Q5T6F0+Q9BW61); assay: FP direct peptide binding, DDB1–DCAF12–DDA1 complex; settings: for Kd range, FP direct binding: DDB1–DCAF12–DDA1, FITC-labeled peptide
T3 construct: Despite our attempts to express and purify the full-length (FL) DCAF12 in isolation; made in house; host or cells: Spodoptera frugiperda Sf9 (baculovirus co-expression)
Description: as §1, §2, §3

[2] = biological target: T4, biotinylated DCAF12 (Δ1–78) (Homo sapiens, UniProt Q5T6F0); assay: SPR peptide binding, biotinylated DCAF12 (Δ1–78); settings: unlabeled peptide, 15 °C, 1:1 Langmuir; for koff: dissociation phase 200 s; for koff / kon: HEPES pH 7.4, 2% DMSO, Fig. 1D, E; for kon: injected 120 s at 30 μL/min
T4 construct: DCAF12:79-453aa; His6 with linker ([…]) (C); made in house; host or cells: Sf9 cells (baculovirus, pFBD-BirA vector)
Experimental: For SPR experiments, DCAF12 Δ1–78 sequence was subcloned into pFBD-BirA vector, expressed in sf9 cells, and purified as described (Table S2). Biotinylated DCAF12 (Δ1–78) was immobilized to a level of ∼3,200 RU on a Biacore Series S streptavidin chip (Cytiva BR100531) using a Biacore 8K+ (Cytiva). Experiments were performed in a running buffer of 10 mM 4-(2-hydroxyethyl)-1-piperazineethanesulfonic acid (HEPES), pH 7.4, 150 mM NaCl (Cytiva BR-1006-70), 3 mM EDTA (Corning 46-034-CI), 0.005% P20 (Cytiva BR-1000-54), 5% Glycerol (Sigma G5516-1L), and 2% DMSO (Millipore Sigma MX1457-6). CCT5 and MAGEA3 peptides were injected over a period of 120 s at 30 μL/min followed by a dissociation phase of 200 s in an 8-point 2-fold dilution series with a top concentration of 1 μM. All steps were carried out at 15 °C. Reference and buffer-blank subtracted data were analyzed with the Biacore 8K Evaluation Software and fit to a 1:1 Langmuir model to obtain binding kinetics and KD values.

Substance | effect of DCAF12 mutation on interaction with degron, NanoBRET (DCAF12 R203A/R256A) | effect of DCAF12 mutation on interaction with degron, NanoBRET (DCAF12 R203A/R244A) | Kd range, FP direct binding (DCAF12 (Δ1–78)) | Kd range, FP direct binding (DCAF12-DDB1) | Kd range, FP direct binding (DCAF12-DDB1-DDA1) | koff [2] [s⁻¹] | kon [2] [M⁻¹ s⁻¹] | further results
ARTKQTARASTGGK [H3K9A, reference compound] |  |  |  |  |  |  |  | FP binding of control peptide lacking -EE (DCAF12-DDB1; FITC-labeled peptide 20 nM, protein up to 4 µM, Tris pH 7.5, 45 min, room temperature, DCAF12-DDB1 complex per Fig. S2): did not show any binding
CCT5-FL: full-length T-complex protein 1 subunit epsilon protein |  |  |  |  |  |  |  | effect of DCAF12 mutations on interaction, NanoBRET [1]: no changes were observed; also recorded: little to no effect; BRET signal over negative control (DCAF12): 3.6 fold; engagement with DCAF12 in cells, NanoBRET (DCAF12): low engagement
IRKPGESEE [CCT5 degron] | significantly decreased | significantly decreased |  |  |  |  |  | 
IRKPGESEE [CCT5] |  |  | nanomolar range | nanomolar range | nanomolar range | 0.017 | 290000 | Kd ([2]; 8-point 2-fold dilution from 1 μM, 10 mM HEPES pH 7.4, 150 mM NaCl, 3 mM EDTA, 0.005% P20, 5% glycerol, 2% DMSO, Table S1): 60 nM
LHEWVLREGEE [MAGEA3 degron] | significantly decreased | significantly decreased |  |  |  |  |  | 
LHEWVLREGEE [MAGEA3] |  |  | nanomolar range | nanomolar range | nanomolar range | 0.06 | 370000 | Kd (DCAF12-DDB1-DDA1; FITC-labeled peptide 20 nM, protein 2-fold dilution from 4 µM, 20 mM Tris pH 7.5, 150 mM NaCl, 5% glycerol, 0.5 mM TCEP, 0.01% Triton, 45 min, room temperature, triplicates, at least two independent experiments): 60 nM

— paper PMC11044963, “Probing the CRL4^DCAF12 interactions with MAGEA3 and CCT5 di-Glu C-terminal degrons” (PNAS Nexus, 2024)
